Earlier results, collected in patent US20240065995A1, “INJECTABLE METHODS TO TREAT DEFICIENCIES IN GLUTATHIONE METABOLISM AND HOMOCYSTINURIA” (priority 2022, published 2024).

Details: glutathione in the bloodstream; background statement

Question: Which “half-life in the bloodstream” value does the source give for N[C@@H](CCC(=O)N[C@@H](CS)C(=O)NCC(=O)O)C(=O)O [Glutathione] here?
Answer: The value was “under 2 minutes”.
